Drawing on patent US20260102501A1, “ANTI-CANCER NUCLEAR HORMONE RECEPTOR-TARGETING COMPOUNDS” (Nuvation Bio Inc., priority 2022, published 2026), this text covers IC50 and PR antagonism for seven molecules.

The term IC50 denotes the point on the concentration scale where inhibition reaches its midpoint.

The test system of one assay is 22Rv1 cells. Nature of the assay: Cell viability assay (CellTiterGlo). The note with it: Homo sapiens, 22Rv1, 144 h, read-out: 22RV1 (IC50, nM).
The target of assay [1] is T1, ligand binding domain of the glucocorticoid receptor (HEK293 cells stably expressing) (Homo sapiens, UniProt P04150).
T1 sequence (P04150 524-758 limits assumed): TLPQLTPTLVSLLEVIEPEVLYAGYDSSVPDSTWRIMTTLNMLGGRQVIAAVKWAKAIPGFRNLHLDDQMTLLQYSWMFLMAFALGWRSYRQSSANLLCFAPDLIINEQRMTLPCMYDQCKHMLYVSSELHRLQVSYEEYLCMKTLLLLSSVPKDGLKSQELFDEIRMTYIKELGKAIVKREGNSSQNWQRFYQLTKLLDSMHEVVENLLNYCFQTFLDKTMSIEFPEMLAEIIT
Nature of the assay: GR antagonism assay (luciferase reporter). A general note: A reporter such as luciferase makes a cellular process visible.

Assay [2] has as its target T2, AR (cytosol from LnCaP cells) (Homo sapiens, UniProt P10275, T878A).
T2 sequence (P10275 1-920 T878A): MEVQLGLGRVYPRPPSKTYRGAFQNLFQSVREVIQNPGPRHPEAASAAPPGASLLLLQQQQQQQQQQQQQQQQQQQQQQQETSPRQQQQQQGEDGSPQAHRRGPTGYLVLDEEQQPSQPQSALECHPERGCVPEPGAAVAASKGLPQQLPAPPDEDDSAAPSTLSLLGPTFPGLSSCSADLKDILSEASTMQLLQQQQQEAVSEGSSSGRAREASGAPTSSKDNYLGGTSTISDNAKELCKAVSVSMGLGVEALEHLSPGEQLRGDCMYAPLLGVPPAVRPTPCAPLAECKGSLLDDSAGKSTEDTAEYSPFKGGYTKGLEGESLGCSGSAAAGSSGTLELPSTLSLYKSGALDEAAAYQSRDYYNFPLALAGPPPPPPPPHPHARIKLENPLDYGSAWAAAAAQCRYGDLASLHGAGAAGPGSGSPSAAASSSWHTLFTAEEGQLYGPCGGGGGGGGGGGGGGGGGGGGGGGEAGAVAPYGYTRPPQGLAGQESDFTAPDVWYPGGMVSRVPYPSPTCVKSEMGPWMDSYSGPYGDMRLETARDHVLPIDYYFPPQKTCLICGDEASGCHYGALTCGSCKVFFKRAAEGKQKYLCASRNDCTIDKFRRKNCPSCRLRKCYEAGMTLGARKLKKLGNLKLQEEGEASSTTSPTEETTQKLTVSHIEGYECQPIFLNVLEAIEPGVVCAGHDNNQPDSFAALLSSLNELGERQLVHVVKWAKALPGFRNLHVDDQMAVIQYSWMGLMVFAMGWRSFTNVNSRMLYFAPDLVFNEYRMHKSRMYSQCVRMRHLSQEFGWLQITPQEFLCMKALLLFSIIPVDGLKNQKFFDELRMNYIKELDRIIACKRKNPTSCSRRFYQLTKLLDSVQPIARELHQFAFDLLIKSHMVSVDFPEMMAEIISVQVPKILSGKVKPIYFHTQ
Kind of assay: AR binding assay (3H-R1881 displacement).
Procedure: The plate was then centrifuged at 3000 rpm for 30 minutes at 4° C.

The subject of the next assay is LNCap cells. Nature of the assay: Cell viability assay (CellTiterGlo). It is filed as cell-based. The note with it: Homo sapiens, 144 h.
The subject of another assay is T47D cells. Nature of the assay: Cell viability assay (CellTiterGlo). The assay is classed as cell-based. The note with it: Homo sapiens, 144 h, 6 days incubation, CellTiterGlo, read-out: T47D (IC50).
Assay [3] deals with T3, Progesterone Receptor (PR)-LBD and coactivator peptide (Homo sapiens, UniProt P06401).
T3 sequence (P06401 679-913 limits assumed): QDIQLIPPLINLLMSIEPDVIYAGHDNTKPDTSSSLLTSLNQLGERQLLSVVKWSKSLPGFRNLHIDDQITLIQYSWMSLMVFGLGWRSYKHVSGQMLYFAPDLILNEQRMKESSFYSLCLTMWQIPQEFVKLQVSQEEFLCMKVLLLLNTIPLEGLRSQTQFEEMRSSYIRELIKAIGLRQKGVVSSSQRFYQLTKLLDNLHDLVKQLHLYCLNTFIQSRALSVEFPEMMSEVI
Nature of the assay: PR coactivator antagonist assay. To be noted: 2.5 nM PR-LBD, 10 nM progesterone-induced fluorescence response.

[4] abbreviates: 6 days incubation, CellTiterGlo, read-out: LNCap (IC50).

Where a name gives a salt, the structure may show the parent alone. Read-outs that look alike come from different tables or passages of the source.

For the molecule `CC[C@@]1(O)C(=O)OCc2c1cc1n(c2=O)Cc2cc3c(CN4CCN(C(=O)C5CCN(c6ccc(C(=O)N[C@H]7CC[C@H](Oc8ccc(C#N)c(Cl)c8C)CC7)nn6)CC5)CC4)c(OC(=O)N4C[C@H](C)N(C)C[C@H]4C)ccc3nc2-1` [Compound 30, (S)-10-((4-(1-(6-(((1r,4r)-4-(3-Chloro-4-cyano-2-methylphenoxy)cyclohexyl)carbamoyl)-pyridazin-3-yl)piperidine-4-carbonyl)piperazin-1-yl)methyl)-4-ethyl-4-hydroxy-3,14-dioxo-3,4,12,14-tetrahydro-1H-pyrano[3′,4′:6,7]indolizino[1,2-b]quinolin-9-yl (2R,5S)-2,4,5-trimethylpiperazine-1-carboxylate Formate], the 50% inhibitory concentration (IC50) in the assay with 22Rv1 cells was 101 to 1000 nM; in assay [1], above 1000 nM; in assay [2], below 10 nM; in the assay with LNCap cells (read-out: LNCap (IC50, nM)), 10 to 100 nM.
`CC[C@@]1(O)C(=O)OCc2c1cc1n(c2=O)Cc2cc3c(CN(C)C)c(OC(=O)N4CCN(CC5CCN(c6ccc(C(=O)N[C@H]7CC[C@H](Oc8ccc(C#N)c(Cl)c8C)CC7)nn6)CC5)CC4)ccc3nc2-1` [Compound 31, (S)-10-((Dimethylamino)methyl)-4-ethyl-4-hydroxy-3,14-dioxo-3,4,12,14-tetrahydro-1H-pyrano[3′,4′:6,7]indolizino[1,2-b]quinolin-9-yl 4-((1-(6-(((1r,4r)-4-(3-chloro-4-cyano-2-methylphenoxy)cyclohexyl)carbamoyl)pyridazin-3-yl)piperidin-4-yl)methyl)piperazine-1-carboxylate Formate]: the IC50 with 22Rv1 cells is 101 to 1000 nM; in assay [1], above 1000 nM; in assay [2], below 10 nM; in the assay with LNCap cells (read-out: LNCap (IC50, nM)), 10 to 100 nM.
For the molecule `CC[C@@]1(O)C(=O)OCc2c1cc1n(c2=O)Cc2cc3c(CN4CCN(CCCCCCN(C)c5ccc([C@H]6C[C@@]7(C)[C@@H](CC[C@]7(OC(C)=O)C(C)=O)[C@@H]7CCC8=CC(=O)CCC8=C76)cc5)CC4)c(O)ccc3nc2-1` [Compound 36, (8S,11R,13S,14S,17R)-17-acetyl-11-(4-((6-(4-(((S)-4-ethyl-4,9-dihydroxy-3,14-dioxo-3,4,12,14-tetrahydro-1H-pyrano[3′,4′:6,7]indolizino[1,2-b]quinolin-10-yl)methyl)piperazin-1-yl)hexyl)(methyl)amino)phenyl)-13-methyl-3-oxo-2,3,6,7,8,11,12,13,14,15,16,17-dodecahydro-1H-cyclopenta[a]phenanthren-17-yl acetate], the IC50 in the assay with T47D cells was 10 to 100 nM; in assay [1], below 10 nM; in assay [2] it was 10 to 100 nM; with LNCap cells (setting [4]) it was 10 to 100 nM.
As for `CC[C@@]1(O)C(=O)OCc2c1cc1n(c2=O)Cc2c-1nc1cc(F)c(C)c3c1c2[C@@H](N(C)C(=O)COCC1CCN(CCCCCCCN(C)c2ccc([C@H]4C[C@@]5(C)[C@@H](CC[C@]5(OC(C)=O)C(C)=O)[C@@H]5CCC6=CC(=O)CCC6=C54)cc2)CC1)CC3` [Compound 55, (8S,11R,13S,14S,17R)-17-acetyl-11-(4-((7-(4-((2-(((1S,9S)-9-ethyl-5-fluoro-9-hydroxy-4-methyl-10,13-dioxo-2,3,9,10,13,15-hexahydro-1H,12H-benzo[de]pyrano[3′,4′:6,7]indolizino[1,2-b]quinolin-1-yl)(methyl)amino)-2-oxoethoxy)methyl)piperidin-1-yl)heptyl)(methyl)amino)phenyl)-13-methyl-3-oxo-2,3,6,7,8,11,12,13,14,15,16,17-dodecahydro-1H-cyclopenta[a]phenanthren-17-yl acetate], the IC50 in the assay on T47D cells was 101 to 1000 nM; in assay [1], 10 to 100 nM; in assay [2], 10 to 100 nM; with LNCap cells (setting [4]), 101 to 1000 nM.
With `CC[C@@]1(O)C(=O)OCc2c1cc1n(c2=O)Cc2cc3c(CN(C)C)c(OCC4CCN(C(=O)CN(C)c5ccc([C@H]6C[C@@]7(C)[C@@H](CC[C@]7(OC(C)=O)C(C)=O)[C@@H]7CCC8=CC(=O)CCC8=C76)cc5)CC4)ccc3nc2-1` [Compound No. 19, (8S,11R,13S,14S,17R)-17-Acetyl-11-(4-((2-(4-((((S)-10-((dimethylamino)methyl)-4-ethyl-4-hydroxy-3,14-dioxo-3,4,12,14-tetrahydro-1H-pyrano[3′,4′:6,7]indolizino[1,2-b]quinolin-9-yl)oxy)methyl)-piperidin-1-yl)-2-oxoethyl)(methyl)amino)phenyl)-13-methyl-3-oxo-2,3,6,7,8,11,12,13,14,15,16,17-dodeca-hydro-1H-cyclopenta[a]phenanthren-17-yl acetate], the IC50 in the assay with T47D cells is 101 to 1000 nM; in assay [1], 10 to 100 nM; in assay [2], 10 to 100 nM; in the assay on LNCap cells (setting [4]), 101 to 1000 nM. For the same molecule, the PR antagonism entry in assay [3] is “a (IC50 =< 10 nM)”.
As to `CC[C@@]1(O)C(=O)OCc2c1cc1n(c2=O)Cc2c-1nc1cc(F)c(C)c3c1c2[C@@H](NC(=O)COCCCCCCN(C)c1ccc([C@H]2C[C@@]4(C)[C@@H](CC[C@]4(OC(C)=O)C(C)=O)[C@@H]4CCC5=CC(=O)CCC5=C42)cc1)CC3` [Compound No. 47, (8S,11R,13S,14S,17R)-17-acetyl-11-(4-((6-(2-(((1S,9S)-9-ethyl-5-fluoro-9-hydroxy-4-methyl-10,13-dioxo-2,3,9,10,13,15-hexahydro-1H,12H-benzo[de]pyrano [3′,4′:6,7]indolizino[1,2-b]quinolin-1-yl)amino)-2-oxoethoxy)hexyl)(methyl)amino)phenyl)-13-methyl-3-oxo-2,3,6,7,8,11,12,13,14,15,16,17-dodecahydro-1H-cyclopenta[a]phenanthren-17-yl acetate], the IC50 in the assay on T47D cells was 10 to 100 nM; in assay [1], 101 to 1000 nM; in assay [2] it was 10 to 100 nM; with LNCap cells (setting [4]), 10 to 100 nM.
As for `CC[C@@]1(O)C(=O)OCc2c1cc1n(c2=O)Cc2c-1nc1cc(F)c(C)c3c1c2[C@@H](NCC1CCN(CC2CCN(C(=O)CN(C)c4ccc([C@H]5C[C@@]6(C)[C@@H](CC[C@]6(OC(C)=O)C(C)=O)[C@@H]6CCC7=CC(=O)CCC7=C65)cc4)CC2)CC1)CC3` [Compound No. 51, (8S,11R,13S,14S,17R)-17-acetyl-11-(4-((2-(4-((4-((((1S,9S)-9-ethyl-5-fluoro-9-hydroxy-4-methyl-10,13-dioxo-2,3,9,10,13,15-hexahydro-1H,12H-benzo[de]pyrano[3′,4′:6,7]indolizino[1,2-b]quinolin-1-yl)amino)methyl)piperidin-1-yl)methyl)piperidin-1-yl)-2-oxoethyl)(methyl)amino)phenyl)-13-methyl-3-oxo-2,3,6,7,8,11,12,13,14,15,16,17-dodecahydro-1H-cyclopenta[a]phenanthren-17-yl acetate], the IC50 with 22Rv1 cells is 10 to 100 nM; in assay [1] it was 10 to 100 nM; in assay [2], below 10 nM; with LNCap cells (setting [4]), 10 to 100 nM.
